Experimental data as given in ChEMBL document CHEMBL2157979, “Discovery of new non-steroidal FXR ligands via a virtual screening workflow based on Phase shape and induced fit docking” (Bioorg Med Chem Lett, 2012).

Key:
[1] = biological target: T1, Bile acid receptor (Homo sapiens) (UniProt Q96RI1); assay: Agonist activity at GST-tagged FXRalpha ligand binding domain assessed as biotinylated SRC1 binding at 20 uM after 30 mins by HTRF assay
T1 sequence (whole entry): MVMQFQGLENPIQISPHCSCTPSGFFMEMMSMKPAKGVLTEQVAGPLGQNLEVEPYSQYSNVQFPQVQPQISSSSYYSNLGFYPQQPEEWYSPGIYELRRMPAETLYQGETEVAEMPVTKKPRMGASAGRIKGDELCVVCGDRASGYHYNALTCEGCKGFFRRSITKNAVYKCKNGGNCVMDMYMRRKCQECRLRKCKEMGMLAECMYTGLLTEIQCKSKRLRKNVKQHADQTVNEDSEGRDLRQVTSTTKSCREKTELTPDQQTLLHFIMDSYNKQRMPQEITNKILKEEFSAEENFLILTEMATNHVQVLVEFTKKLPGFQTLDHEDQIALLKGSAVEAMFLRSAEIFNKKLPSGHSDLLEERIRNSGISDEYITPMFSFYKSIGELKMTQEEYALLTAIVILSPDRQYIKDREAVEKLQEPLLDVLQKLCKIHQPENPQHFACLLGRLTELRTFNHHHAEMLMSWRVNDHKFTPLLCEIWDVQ

[2] = biological target: T1, Bile acid receptor (Homo sapiens); assay: Antagonist activity at GST-tagged FXRalpha ligand binding domain assessed as inhibition of CDCA-induced biotinylated SRC1 binding at 20 uM after 30 mins by HTRF assay
[3] = biological target: T2, Bile acid receptor (Homo sapiens, UniProt Q96RI1); assay: (§1) Antagonist activity at GST-tagged FXRalpha ligand binding domain assessed as inhibition of CDCA-induced biotinylated SRC1 binding after 30 mins by HTRF assay
T2 sequence (Q96RI1 whole entry): T1 sequence (whole entry)

[4] = biological target: T1, Bile acid receptor (Homo sapiens); assay: as §1
[5] = biological target: T2, Bile acid receptor; assay: (§2) Agonist activity at GST-tagged FXRalpha ligand binding domain assessed as biotinylated SRC1 binding after 30 mins by HTRF assay
[6] = biological target: T1, Bile acid receptor (Homo sapiens); assay: as §2
[7] = biological target: T2, Bile acid receptor; assay: (§3) Agonist activity at FXRalpha expressed in HEK293 cells assessed as increase in transcriptional activity after 18 hrs by luciferase reporter gene assay; format: functional, cell-based
[8] = biological target: T1, Bile acid receptor (Homo sapiens); assay: as §3; format: functional, cell-based
[9] = biological target: T2, Bile acid receptor; assay: Agonist activity at FXR; format: functional

Row | SMILES | Activity [1] | inhibition [2] | IC50 [3] | inhibition [4] | EC50 [5] | Activity [6] | EC50 [7] | Activity [8] | EC50 [9]
1 | C[C@@H]1CCc2c(sc3nc(CN4CCOCC4)nc(N[C@H](c4ccccc4)c4ccccn4)c23)C1 | < 5% | 57.1% | 8.23 µM | Dose-dependent effect | – | – | – | – | –
2 | NC(=O)c1ccc(NC(=O)[C@@H](Cc2ccccc2)NC(=O)c2ccc(Cl)cc2)cc1 | 52.5% | 7.28% | – | – | 12.9 µM | Dose-dependent effect | 2.6 µM | Dose-dependent effect | –
3 | O=C(COC(=O)c1ccc(O)cc1)Nc1sc2c(c1C(=O)c1ccccc1)CCCC2 | < 5% | 63.3% | 3.77 µM | Dose-dependent effect | – | – | – | – | –
4 | COC(=O)/C=C/c1cccc(N(Cc2ccc(/C=C/c3ccccc3)cc2)C(=O)C2CCCCC2)c1 | – | – | – | – | – | – | – | – | 0.036 µM
5 | Cc1cc(OCc2c(-c3c(Cl)cncc3Cl)noc2C(C)C)ccc1-c1ccc2c(c1)c(C(=O)O)cn2C | – | – | – | – | – | – | – | – | 0.094 µM
